Source: paper PMC6152180, “Design, Synthesis and Evaluation of Hesperetin Derivatives as Potential Multifunctional Anti-Alzheimer Agents” (Molecules : A Journal of Synthetic Chemistry and Natural …, 2017)
Where two headings read alike, the source gives them in different places.

Experiments:
AChE [1] = molecular target: T1, AChE (Electrophorus electricus, UniProt O42275); assay: biochemical; conditions: for IC50: AChE from electric eel, means ± SEM of three experiments, read-out: AchE Inhibition, (IC50); for Selective Index: Selectivity Index = IC50 (BuChE)/IC50 (AChE)
T1 construct: purchased Sigma-Aldrich C3389-2KU
Procedure: (§1) Acetylcholinesterase (AChE, E.C. 3.1.1.7, obtained from electric eel) was purchased from Sigma-Aldrich (St. Louis, MO, USA, product code: C3389-2KU). Butyrylcholinesterase (BuChE, E.C. 3.1.1.8, obtained from equine serum) was purchased from Aladdin (Shanghai, China, product code: B128570-2KU). […] The compounds were dissolved in a minimum volume of DMSO (1%) and then diluted in 0.1 M KH2PO4/K2HPO4 buffer (pH 8.0) to provide a final concentration range.
(§2) Enzyme solutions were prepared to give 2.0 units/ mL in 2 mL aliquots. The assay medium contained phosphate buffer, pH 8.0 (1 mL), 50 μL of 0.01 M DTNB, 10 μL of enzyme, and 50 μL of 0.01 M substrate (ATC). The substrate was added to the assay medium containing enzyme, buffer, and DTNB with inhibitor after 15 min of incubation time. […] In vitro BuChE assay used the similar method described above [31]. Each concentration was assayed in triplicate.

BuChE = molecular target: T2, BuChE (Equus caballus, UniProt P81908); assay: biochemical; conditions: BuChE from equine serum; means ± SEM of three experiments; read-out: BuChE Inhibition, (IC50)
T2 construct: purchased Aladdin B128570-2KU; host or cells: equine serum
Procedure: as §1, §2

in vitro = conditions: human
Procedure: Thus, we used the methylthiazolyl tetrazolium (MTT) method [30] to perform a neurocyte (SH-SY5Y) toxicity test in vitro.
The SH-SY5Y cell line was seeded on 96-well plates at a density of 10^4 cells/well. […] Subsequently, 10 μL of 5 mg/mL MTT solution was added to each well and further incubated for 4 h at 37 °C. The solution was carefully removed, and each well was treated with DMSO (200 μL for each well). The optical density of the wells was then read on the microplate reader at 570 nm. All the tested compounds were performed in triplicate.

Aβ (1–42) = Aβ (1–42) (Homo sapiens, UniProt P05067); assay: Inhibition of self-mediated Aβ (1–42) aggregation (thioflavin T fluorescence assay); conditions: for inhibition at 20 µM: read-out: Aβ (1–42) aggregation inhibition rate
Procedure: A thioflavin T based fluorometric assay was performed to investigate the self-mediated Aβ (1–42) aggregation [33]. Aβ (1–42) peptide (Sigma-Aldrich) was dissolved in phosphate buffer (0.01 M, pH 7.40) to obtain a 20 μM solution. Compounds were firstly dissolved in DMSO to obtain a 10 mM solution. Inhibitors and the final concentration of Aβ (1–42) were 20 μM. After incubated in 37 °C for 48 h, thioflavin-T (5 μM in 50 mM glycine-NaOH buffer, pH 8.00) was added. […] Each inhibitor was run in triplicate. The fluorescence intensities were recorded, and the percent inhibition on aggregation was calculated by the following expression: (1 − IFi/IFc) × 100% in which IFi and IFc were the fluorescence intensities obtained for absorbance in the presence and absence of inhibitors, respectively, after subtracting the fluorescence of respective blanks.

AChE [2] = molecular target: T1, AChE; assay: Kinetic characterization of AChE inhibition (Lineweaver-Burk plot); format: biochemical; conditions: Lineweaver–Burk plots
Procedure: Three different concentrations (2, 4 and 8 nM) of substrate were mixed in the 1 mL 0.1 M KH2PO4/K2HPO4 buffer (pH 8.0), containing 10 μL AChE, 50 μL of DTNB, and 50 μL substrate. […] A parallel control with no inhibitor in the mixture, allowed adjusting activities to be measured at various times.

PC12 cells = assay: Protective effect against H2O2-induced cell death in PC12 neurons (MTT); format: cell-based
Procedure: The neuroprotective activity of compound 4f against oxidative stress-induced cell death in PC12 cells was evaluated. Compound 4f was evaluated at concentrations of 1, 2.5 and 5 µM, and quercetin was used as the reference compound. […] […].
PC12 cells were cultured in DMEM media with 10% fetal calf serum (FCS, Hyclone) containing 100 units/mL penicillin and […] streptomycin under 5% CO2 at 37 °C. To produce oxidative stress, H2O2 was freshly prepared from a 30% stock solution prior to each experiment. PC12 cells were plated in cell culture plates at a density of 10^5 cells per well. In our study, 0.2 mM H2O2 were treated with PC12 cells for 24 h in the injury module, while the compound group cells were pretreated with different concentrations (1, 2.5 and 5 μM) of the compound 4f for 2 h. The control group cells were treated with the same medium without H2O2 or compound 4f. The cell viability of PC12 cells was evaluated using MTT assay. After, PC12 cells were cultured with 5 mg/mL MTT and incubated for 4 h at 37 °C. Then the cells were lysed in dimethyl sulfoxide DMSO ([…]). The absorbance was detected at 570 nm by a microplate reader (Bio-Tek). PC12 cells were cultured without 4f or H2O2 as control group and the results were expressed by percentage of control.

[3] = Oxygen radical absorbance capacity-fluorescein (ORAC-FL) assay; conditions: Trolox equivalents, Trolox = 1
Procedure: Vitamin E analogue Trolox was used as the standard, and the results were expressed as Trolox equivalents.
The anti-oxidation activity was tested by using the oxygen radical absorbance capacity-fluorescein (ORAC-FL) assay [25, 32]. All the ORAC-assays measure antioxidant scavenging activity against peroxyl radical induced by 2,2′-azobis (2-amidinopropane) dihydrochloride (AAPH) at 37 °C.
The reaction was conducted with 75 mM phosphate buffer (pH 7.4) and the final reaction mixture was 200 μL. Fluorescein (120 μL, 300 nM final concentration) and antioxidant (20 μL) were placed in the wells of a black 96-well plate, and the mixture was incubated for 15 min at 37 °C. Then AAPH solution (60 μL, 12 mM final concentration) was added rapidly. […] 6-hydroxy-2,5,7,8-tetramethylchroman-2-carboxylic acid (Trolox) was used as a standard (1–5 μM, final concentration). A blank (FL + AAPH) using phosphate buffer instead of antioxidant and Trolox calibration were carried out in each assay. The samples were measured at different concentrations (1–5 μM), and at least three independent assays were performed for each sample. Fluorescence measurements were normalized based on the curve of the blank (without antioxidant). Antioxidant curves (fluorescence versus time) were normalized to the curve of the blank in the same assay, and then the area under the fluorescence decay curve (AUC) was calculated. The net AUC of a sample was obtained by subtracting the AUC from the blank. ORAC-FL values were expressed as Trolox equivalents by using the standard curve calculated for each sample, where the ORAC-FL value of Trolox was taken as one, indicating the antioxidant potency of the test compounds.

T2 sequence (P81908 whole entry): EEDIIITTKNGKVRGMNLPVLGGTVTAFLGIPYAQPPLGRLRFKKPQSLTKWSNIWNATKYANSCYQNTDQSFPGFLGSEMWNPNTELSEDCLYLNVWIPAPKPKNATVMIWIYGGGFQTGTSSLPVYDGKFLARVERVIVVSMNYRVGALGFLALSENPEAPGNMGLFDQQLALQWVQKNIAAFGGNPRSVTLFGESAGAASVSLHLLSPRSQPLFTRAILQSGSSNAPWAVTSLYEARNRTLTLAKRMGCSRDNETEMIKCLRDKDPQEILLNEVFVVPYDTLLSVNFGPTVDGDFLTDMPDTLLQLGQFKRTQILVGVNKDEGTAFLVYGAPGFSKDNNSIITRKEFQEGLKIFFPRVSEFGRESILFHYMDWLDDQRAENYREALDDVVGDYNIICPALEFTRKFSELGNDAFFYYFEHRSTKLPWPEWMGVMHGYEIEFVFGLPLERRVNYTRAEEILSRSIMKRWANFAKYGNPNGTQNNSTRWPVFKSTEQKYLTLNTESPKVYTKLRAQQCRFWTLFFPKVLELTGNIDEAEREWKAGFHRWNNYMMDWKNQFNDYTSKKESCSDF
T1 sequence (O42275 24-633): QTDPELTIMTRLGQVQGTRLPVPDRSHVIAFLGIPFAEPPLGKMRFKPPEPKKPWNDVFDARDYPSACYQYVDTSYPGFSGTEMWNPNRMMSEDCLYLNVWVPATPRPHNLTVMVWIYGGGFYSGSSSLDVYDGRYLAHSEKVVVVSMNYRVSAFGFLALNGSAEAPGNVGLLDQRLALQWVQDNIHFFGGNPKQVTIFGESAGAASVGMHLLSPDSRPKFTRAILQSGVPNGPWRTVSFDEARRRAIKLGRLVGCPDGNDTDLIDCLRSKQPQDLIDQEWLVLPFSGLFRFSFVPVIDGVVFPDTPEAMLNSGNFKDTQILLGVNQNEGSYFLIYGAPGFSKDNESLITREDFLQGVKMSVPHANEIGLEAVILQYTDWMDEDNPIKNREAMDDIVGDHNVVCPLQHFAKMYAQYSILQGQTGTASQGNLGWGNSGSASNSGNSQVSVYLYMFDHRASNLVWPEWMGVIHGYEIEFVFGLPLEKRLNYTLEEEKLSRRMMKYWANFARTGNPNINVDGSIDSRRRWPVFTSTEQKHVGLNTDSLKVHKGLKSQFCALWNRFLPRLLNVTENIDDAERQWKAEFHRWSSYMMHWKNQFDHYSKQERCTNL
Sequence of Aβ (1–42) (P05067 672-713): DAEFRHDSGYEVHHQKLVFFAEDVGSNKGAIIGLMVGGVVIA

| Structure (SMILES) | IC50 (AChE [1]) | Selective Index (AChE [1]) | IC50 (BuChE) | viability at 48 h, 1 µM (in vitro) | viability at 48 h, 10 µM (in vitro) | viability at 48 h, 50 µM (in vitro) | viability at 48 h, 100 µM (in vitro) | inhibition at 20 µM (Aβ (1–42)) | inhibition type against AChE (AChE [2]) | Ki (AChE [2]; superscript b not defined, read-out: Ki b) | Ki (AChE [2]; superscript c not defined, read-out: Ki c) | Ki (AChE [2]; superscript d not defined, read-out: Ki d) | protective capability compared with quercetin (PC12 cells; 5 µM, H2O2 200 µM) | cytotoxicity toward the PC12 cells (PC12 cells; 1, 2.5 and 5 µM) | protection of PC12 neurons against H2O2-induced cell death (PC12 cells; pretreatment at 1, 2.5 and 5 µM, H2O2 200 µM, p-value < 0.01) | IC50 (Aβ (1–42)) | ORAC [3] |
| --- | --- | --- | --- | --- | --- | --- | --- | --- | --- | --- | --- | --- | --- | --- | --- | --- | --- |
| COc1ccc(C2CC(=O)c3c(O)cc(OCC(=O)NCc4ccccc4)cc3O2)cc1O (centres unmarked) [Compound 4a, N-Benzyl-2-[5-hydroxy-2-(3-hydroxy-4-methoxyphenyl)-4-oxochroman-7-yloxy]-acetamide] | 25.5 ± 1.32 nM | 133 | 3400 ± 56 nM | 98.2 ± 8.02% | 91.6 ± 5.67% | 81.4 ± 5.23% | 63.2 ± 4.23% | 73.2% | – | – | – | – | – | – | – | – | – |
| COc1ccc([C@@H]2CC(=O)c3c(O)cc(OCC(=O)NCc4ccc(C(F)(F)F)cc4)cc3O2)cc1O [Compound 4f, 2-[5-Hydroxy-2-(3-hydroxy-4-methoxyphenyl)-4-oxochroman-7-yloxy]-N-(4-trifluoro-methylbenzyl)acetamide] | 9.37 ± 0.87 nM | 305 | 2860 ± 45 nM | 100 ± 4.76% | 95.8 ± 7.31% | 83.3 ± 5.44% | 62.3 ± 5.78% | 76.3% | mixed-type inhibition | 4.67 nM | 4.27 nM | 3.28 nM | slightly better protective capability than quercetin | no cytotoxicity | significantly protected the neurons against cell death | 8470 ± 440 nM | – |
| COc1ccc(C2CC(=O)c3c(O)cc(OCC(=O)NCCc4ccc(Br)cc4)cc3O2)cc1O (centres unmarked) [Compound 4n, N-[2-(4-Bromophenyl)ethyl]-2-[5-hydroxy-2-(3-hydroxy-4-methoxyphenyl)-4-oxo-chroman-7-yloxy]acetamide] | 17.2 ± 0.96 nM | 115 | 1990 ± 51 nM | 99.8 ± 3.89% | 96.5 ± 4.24% | 78.8 ± 5.21% | 55.6 ± 5.34% | – | – | – | – | – | – | – | – | – | 2.4 μM of Trolox equivalent/μMof tested compound |
| COc1ccc(C2CC(=O)c3c(O)cc(OCC(=O)NCCc4ccccc4Cl)cc3O2)cc1O (centres unmarked) [Compound 4p, N-[2-(2-Chlorophenyl)ethyl]-2-[5-hydroxy-2-(3-hydroxy-4-methoxyphenyl)-4-oxo-chroman-7-yloxy]acetamide] | 17.2 ± 0.45 nM | 201 | 3470 ± 67 nM | 99.3 ± 4.34% | 94.4 ± 3.9% | 83.1 ± 4.27% | 64.5 ± 4.82% | – | – | – | – | – | – | – | – | – | 2.7 μM of Trolox equivalent/μMof tested compound |
| COc1ccc(C2CC(=O)c3c(O)cc(OCC(=O)NCCc4ccccc4F)cc3O2)cc1O (centres unmarked) [Compound 4q, N-[2-(2-Fluorophenyl)ethyl]-2-[5-hydroxy-2-(3-hydroxy-4-methoxyphenyl)-4-oxochroman-7-yloxy]-acetamide] | 20.2 ± 1.88 nM | 111 | 2240 ± 77 nM | 99 ± 5.28% | 92 ± 6.41% | 85.6 ± 3.95% | 66.5 ± 3.81% | – | – | – | – | – | – | – | – | – | 2.5 μM of Trolox equivalent/μMof tested compound |
| COc1ccc(C2CC(=O)c3c(O)cc(OCC(=O)NCCc4cccc(Cl)c4)cc3O2)cc1O (centres unmarked) [Compound 4r, N-[2-(3-Chlorophenyl)ethyl]-2-[5-hydroxy-2-(3-hydroxy-4-methoxyphenyl)-4-oxo-chroman-7-yloxy]acetamide] | 16.1 ± 0.79 nM | 188 | 3030 ± 84 nM | 98.9 ± 5.2% | 95.8 ± 6.29% | 83.8 ± 4.24% | 62.2 ± 4.18% | – | – | – | – | – | – | – | – | – | 2.8 μM of Trolox equivalent/μMof tested compound |
| COc1ccc(C2CC(=O)c3c(O)cc(OCC(=O)NCc4ccncc4)cc3O2)cc1O (centres unmarked) [Compound 4s, 2-[5-Hydroxy-2-(3-hydroxy-4-methoxyphenyl)-4-oxochroman-7-yloxy]-N-pyridin-4-ylmethylacetamide] | 27.3 ± 0.99 nM | 68 | 1850 ± 55 nM | 101 ± 6.17% | 97.5 ± 5.36% | 78.7 ± 3.46% | 59.6 ± 3.61% | 72% | – | – | – | – | – | – | – | – | 2.4 μM of Trolox equivalent/μMof tested compound |
| COc1ccc(C2CC(=O)c3c(O)cc(OCC(=O)NCc4ccco4)cc3O2)cc1O (centres unmarked) [Compound 4t, N-Furan-2-ylmethyl-2-[5-hydroxy-2-(3-hydroxy-4-methoxyphenyl)-4-oxochroman-7-yloxy]acetamide] | 30.6 ± 4.5 nM | 77 | 2350 ± 104 nM | 99.9 ± 4.52% | 97.5 ± 3.65% | 81.8 ± 4.06% | 61.2 ± 5.12% | 70.8% | – | – | – | – | – | – | – | – | 2.6 μM of Trolox equivalent/μMof tested compound |
